pIC50: −log10 of the molar value. Blank lines part the entries; values can stand above or below the compound they belong to. Numbered stars: 1 amine (or outer) side, 2 acyl side, 3 side chain; on linkers, the order of the positions; unused ones are H or OH. Square brackets hold non-standard residues; d marks the D form. Peptide text beside a SMILES is read from it. * marks the point of attachment. pS = N[C@@H](COP(=O)(O)O)C(=O)O; pNA = O=[N+]([O-])c1ccc(N*)cc1; Suc = O=C(CCC(=O)[*:2])[*:1]
Assays:
[1] = target: T1, His-tagged construct of the K77Q/K82Q PPIase domain (Homo sapiens, UniProt Q13526, K77Q/K82Q); assay: Isothermal titration calorimetry; format: binding
T1 construct: made in house; host or cells: E. coli BL21(DE3)
Procedure: The working volume of the ITC cell was 1.414 mL. Both solutions contained 25 mM MOPS pH 7.5, 0.5 mM TCEP and 2.0% DMSO (vol./vol.). The PPIase polypeptide solution was prepared by exhaustively dialyzing a stock protein solution against several changes of dialysis buffer (25 mM MOPS pH 7.5, 0.5 mM TCEP) at 4.0° C.
After dialysis the protein was centrifuged to remove any particulate matter. The protein concentration was then determined by absorbance using an extinction coefficient that had been calculated based on the tryptophan and tyrosine content of the protein. The dialysed protein was then diluted with the dialysate and 2.0% (volume to volume) DMSO was added to yield a final concentration of 200 μM protein. […] An aliquot of the stock solution was diluted in DMSO and then an appropriate volume of dialysate was added. The final DMSO concentration was 2.0% (volume to volume) and the final compound concentration was 10 μM.
Appropriate control titrations (buffer into buffer, buffer into compound, and protein into buffer) were performed to determine the heats of dilution. Prior to fitting for the binding parameters, the observed heats of binding were corrected for heat of dilution of the protein. […] The data were fit using the ORIGIN® software package (MicroCal) provided with the ITC (FIG. 6). […] The One Set of Sites model with ligand in the cell was selected.

PPIase domain of PIN1 = target: T2, PPIase domain of PIN1 (Homo sapiens, UniProt Q13526); assay: Fluorescence polarization competition assay with fluorescein-tagged Pintide; format: binding; settings: free Pintide as inhibitor control
T2 construct: made in house; host or cells: E. coli BL21(DE3)
From the text: This assay is based on fluorescence polarization. In fluorescence polarization detection, monochromatic light passes through a polarized filter and excites molecules in the sample well. Only those molecules that are oriented properly in the polarized plane absorb light, become excited, and subsequently emit light. The emitted light is detected after passing through polarizing filters that are oriented parallel and perpendicular to the plane of excitation. Since small molecules rotate more quickly than large molecules (e.g. in the form of a bound complex), the parallel (S) and perpendicular (P) measurements are closer and the difference is lower. Fluorescence polarization is measured in mP (milliP) which is defined using the following equation: […]
For the PIN1 assay, library compounds compete with fluorescein-tagged Pintide to bind the PPIase domain of PIN1. After a short incubation, samples are assayed using fluorescence polarization. The excitation and emission of fluorescein occur at 485 nm and 530 nm, repectively. […]
Experiments were performed in either 96-well plates or 384-well black flat bottom polystyrene non-binding surface (NBS) plates (Costar). […] Excitation was measured at 485 nm and emission was measured at 530 nm. Readings were taken in a Florescence Polarization reader (Molecular Devices Analyst). […]

mutant PPIase K77Q/K82Q = target: T3, mutant PPIase K77Q/K82Q (Homo sapiens, UniProt Q13526, K77Q/K82Q); assay: PIN1 peptidyl-prolyl isomerase assay (protease-coupled, Suc-AEPF-pNA); format: biochemical; settings: 15° C., read-out: Km for this substrate
T3 construct: 6xHis (N, cleaved yes); made in house; host or cells: E. coli BL21(DE3)
Procedure: PIN1 is a phosphorylation dependent peptidyl-prolyl isomerase. […] Cleavage of the isomerized peptide releases para-nitroanaline, which can be monitored by an increase in absorbance at 390 nm. […] To minimize the spontaneous isomerization of the peptide substrate, reactions are performed at 15° C.
The rate constant k is linearly proportional to the concentration of active enzyme present in the assay mixture once the rate constant for the spontaneous isomerization is subtracted.

human PIN1 = human PIN1 (Homo sapiens, UniProt Q13526); settings: Hennig et al., Biochemistry 37: 5953-5960 (1998); cited from earlier work
[2] = system: Suc-AEPF-pNA peptide substrate; assay: Peptidyl-prolyl isomerase activity of PIN1 polypeptides without inhibitor; format: biochemical; settings: 0.033 nM enzyme, 100 μM Suc-AEPF-pNA
From the text: PIN1 is a phosphorylation dependent peptidyl-prolyl isomerase. Peptidyl-prolyl ismomerase activity for the peptides of the invention can be measured using a spectrophotometric assay based on the coupled chymotrypsin catalyzed, cis-trans conformation dependent cleavage of a para-nitroanaline-containing peptide substrate. This rotamase assay is described by Kofron et al. (Biochemistry 30, […] (1991)) and its application to PIN1 isomerase activity is described by Yaffe et al. (Science 278, 1957-1960 (1997)). Cleavage of the isomerized peptide releases para-nitroanaline, which can be monitored by an increase in absorbance at 390 nm. The PIN1 peptide substrate, succinyl-alanine-[…]-proline-phenylalanine-paranitroaniline (Suc-AEPF-pNA) (Bachem California, Inc., Torrence, Calif.) is kept in a predominantly cis conformation with an anhydrous TFE (trifluorethanol)/LiCl (lithium chloride) solvent mixture. […]
Peptidyl-prolyl isomerase reactions were carried out in 25 mM MOPS [3-(N-Morpholino)propanesufonic acid], pH 7.5, 0.5 mM TCEP [Tris(2-carboxyethyl)phosphine hydrochloride], 2% DMSO, 5 μl of a 25 mg/ml solution of Subtilisin Carlsberg Protease (Sigma), […], and 100 μM Suc-AEPF-pNA peptide substrate. […] The absorbance at 390 nm was monitored continuously until all substrate had been converted to the cleaved product. […]

[3] = ITC, 15.0° C., duplicate, ± standard deviation
[4] = best fit of corrected binding data, FIG. 6

pIC50 (PPIase domain of PIN1): 5.00 to 5.15
Compound: CC(C)C[C@H](NC(=O)[C@H](Cc1ccccc1)NC(=O)[C@@H]1CCCN1C(=O)[C@H](COP(=O)(O)O)NC(=O)[C@H](Cc1ccc(O)cc1)NC(=O)[C@H](Cc1ccccc1)NC(=O)[C@@H](N)Cc1c[nH]c2ccccc12)C(=O)N[C@@H](CCC(=O)O)C(=O)O [Pintide] (H-WFY[pS]PFLE-OH)

Km (mutant PPIase K77Q/K82Q): > 100 µM
Compound: C[C@H](NC(=O)CCC(=O)O)C(=O)N[C@@H](CCC(=O)O)C(=O)N1CCC[C@H]1C(=O)N[C@@H](Cc1ccccc1)C(=O)Nc1ccc([N+](=O)[O-])cc1 [Suc-AEPF-pNA] (Suc-AEPF-pNA)

rate [2]: 0.2
Compound: wild-type PIN1: wild type human PIN1, a phosphorylation dependent peptidyl-prolyl isomerase

Second part, the compound before the results:

Compound: O=C(N[C@@H](COP(=O)(O)O)Cc1ccccc1)c1cc2ccccc2s1 [Compound I, Phosphoric acid mono-{(R)-2-[(1-benzo[b]thiophen-2-yl-methanoyl)-amino]-3-phenyl-propyl} ester]
enthalpy of binding [1, 3]: −7.3 (±0.1) kcal/mol | stoichiometry [1, 3]: 0.854 (±0.003) | C value [1, 4]: 142 | ka [1, 4]: 1.42e+07 M⁻¹

Compound: O=C1C=CC(=O)c2c(O)cccc21 [juglone, 5-hydroxy-1,4-naphthoquinone]
inhibition of parvulins, including human PIN1 (human PIN1): selectively inhibits

From patent US20040171019A1, “PIN1 peptidyl-prolyl isomerase polypeptides, their crystal structures, and use thereof for drug design” (Agouron Pharmaceuticals, Inc., priority 2002, published 2004)
